This note sets out measurements from patent US6166050A, “3,4-diamino-3-cyclobutene-1,2-dione derivatives which inhibit leukocyte adhesion mediated by VLA-4” (American Home Products Corporation, priority 1999, dated 2000).

The target in this assay is T1, α4 β1 integrin (VLA-4) (Homo sapiens, UniProt P05556+P13612).
T1 construct: Jurkat cells (ATCC #TIB-153) which express high levels of α4 β1 integrin (VLA-4); host or cells: Jurkat cells
As to the kind of experiment: Monovalent FACS Assay for α4 β1 Integrin/VCAM-1 Binding (inhibition of soluble VCAM-1 binding to Jurkat cells). Here is the method:
The foregoing compounds were tested for VLA-4 binding activity using the following monvalent FACS assay. The IC50 for a compound reflects 50% receptor occupancy.
Monovalent FACS Assay for α4 β1 Integrin/VCAM-1 Binding
The VLA-4 binding activity of exemplary compounds was measured by measuring the inhibition of the interaction of soluble VCAM-1 with Jurkat cells (ATCC #TIB-153) which express high levels of α4 β1 integrin (VLA-4) using a modification of the fluorescence activated cell sorter (FACS) assay described by Yednock, et al., J. Biol. Chem., 1995, 270:28740. VCAM-1 interacts with the cell surface in an α4 β1 integrin-dependent fashion.
Jurkat cells were grown in RPMI 1640 supplemented with 10% fetal bovine serum, penicillin, streptomycin and glutamine as described by Yednock, supra.
Recombinant soluble VCAM-1 (rsVCAM-1) was produced in a baculovirus expression system as a chimeric fusion protein containing the seven immunoglobulin domains of VCAM-1 on the N-terminus and the human IgG1 heavy chain constant region on the C-terminus as described by Yednock, supra. Supernatant containing approximately 10 ug/ml rsVCAM-1 was collected after 72 hours and used in the assay without purification.
Jurkat cells (approximately 10^7 cells/ml) were treated with 1.5 mM MnCl2 and 5 μg/ml 15/7 for 30 minutes on ice to activate β1 integrin. Mn^+2 activates the receptor to enhance ligand binding, and 15/7 is a monoclonal antibody that recognizes an activated/ligand occupied conformation of α4 β1 integrin and locks the molecule into this conformation thereby stabilizing the VCAM-1/α4 β1 integrin interaction. Yednock, et al., supra. Antibodies similar to 15/7 have been prepared and may be used in this assay. For example, see, Luque, et al., 1996, J. Bio. Chem., 271: 11067.
Aliquots of 25 μl cells were incubated for 30 minutes at room temperature with compounds using a standard 5-point serial dilution. 15 μl of rsVCAM-Fc-containing baculovirus supernatant was added to the cells and incubated for 30 minutes on ice as described in Yednock, et al., supra.
Cells were washed twice and resuspended in 100 μl of a 1:100 dilution of FITC-conjugated goat anti-human IgG to detect the human Ig-VCAM-1 construct diluted in assay media containing 2.5% mouse serum to block potential cross-reactivity with cell surface bound 15/7. Cells were incubated on ice for 30 minutes in the dark. Cells were washed twice and analyzed with a standard FACS analysis as described in Yednock, et al., supra. on a FACScan flow cytometer (Becton Dickinson, Mountain View, Calif.).

Where [1] appears, read: Jurkat cells, rsVCAM-1, IC50 reflects 50% receptor occupancy, unit nM, read-out: IC50 (FACS).
[2] abbreviates: Jurkat cells, rsVCAM-1, IC50 reflects 50% receptor occupancy, unit μM, read-out: IC50 (FACS).

Where two headings read alike, the source gives them in different places.

T1 sequence (P13612 34-1032): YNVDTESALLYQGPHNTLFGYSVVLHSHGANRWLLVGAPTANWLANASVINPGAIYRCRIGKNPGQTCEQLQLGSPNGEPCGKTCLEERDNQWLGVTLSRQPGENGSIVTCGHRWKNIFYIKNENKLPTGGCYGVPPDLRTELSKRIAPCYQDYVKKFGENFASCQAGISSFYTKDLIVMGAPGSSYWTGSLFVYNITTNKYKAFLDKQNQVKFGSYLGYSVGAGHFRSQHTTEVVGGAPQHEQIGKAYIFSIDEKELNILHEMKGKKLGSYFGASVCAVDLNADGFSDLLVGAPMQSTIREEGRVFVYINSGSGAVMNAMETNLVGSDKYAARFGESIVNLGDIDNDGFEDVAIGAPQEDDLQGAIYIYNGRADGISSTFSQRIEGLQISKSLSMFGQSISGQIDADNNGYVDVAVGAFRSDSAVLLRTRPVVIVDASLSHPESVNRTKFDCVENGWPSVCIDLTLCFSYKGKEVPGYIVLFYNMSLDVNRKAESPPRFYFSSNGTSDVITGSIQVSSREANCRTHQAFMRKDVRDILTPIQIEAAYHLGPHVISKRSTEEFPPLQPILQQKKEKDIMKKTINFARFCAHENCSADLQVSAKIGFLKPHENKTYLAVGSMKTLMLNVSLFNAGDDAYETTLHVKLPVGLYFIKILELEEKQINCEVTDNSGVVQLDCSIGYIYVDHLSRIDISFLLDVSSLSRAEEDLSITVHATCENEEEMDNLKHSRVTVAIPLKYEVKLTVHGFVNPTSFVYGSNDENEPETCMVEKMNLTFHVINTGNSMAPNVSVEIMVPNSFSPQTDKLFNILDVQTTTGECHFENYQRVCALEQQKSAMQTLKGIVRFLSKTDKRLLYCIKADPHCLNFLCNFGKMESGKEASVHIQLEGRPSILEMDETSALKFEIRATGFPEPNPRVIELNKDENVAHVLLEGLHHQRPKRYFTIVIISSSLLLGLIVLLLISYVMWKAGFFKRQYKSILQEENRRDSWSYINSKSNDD
T1 sequence (P05556 21-798): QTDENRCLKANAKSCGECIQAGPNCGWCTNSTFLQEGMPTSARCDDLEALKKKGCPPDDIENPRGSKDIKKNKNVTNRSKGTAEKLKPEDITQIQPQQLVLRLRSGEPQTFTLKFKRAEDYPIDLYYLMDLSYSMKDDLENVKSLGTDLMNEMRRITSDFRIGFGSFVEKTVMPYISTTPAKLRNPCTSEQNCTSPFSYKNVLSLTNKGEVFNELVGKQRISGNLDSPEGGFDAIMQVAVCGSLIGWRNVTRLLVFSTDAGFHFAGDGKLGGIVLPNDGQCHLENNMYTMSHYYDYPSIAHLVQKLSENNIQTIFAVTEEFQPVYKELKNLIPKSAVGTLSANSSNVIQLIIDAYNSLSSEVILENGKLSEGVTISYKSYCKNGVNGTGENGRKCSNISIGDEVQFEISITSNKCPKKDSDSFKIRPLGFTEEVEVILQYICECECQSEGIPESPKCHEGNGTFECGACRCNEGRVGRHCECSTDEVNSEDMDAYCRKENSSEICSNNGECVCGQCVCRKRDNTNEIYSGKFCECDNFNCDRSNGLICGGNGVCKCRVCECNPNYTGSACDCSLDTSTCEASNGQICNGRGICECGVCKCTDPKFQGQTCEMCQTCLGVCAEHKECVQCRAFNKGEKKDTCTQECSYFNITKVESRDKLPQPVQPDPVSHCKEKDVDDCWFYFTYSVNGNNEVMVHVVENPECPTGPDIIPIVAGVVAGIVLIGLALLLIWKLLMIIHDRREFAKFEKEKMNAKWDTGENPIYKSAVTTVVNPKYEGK

`CCCCCCN(CCCCCC)c1c(N[C@@H](Cc2ccc(OC(=O)N(C)C)cc2)C(=O)O)c(=O)c1=O` [Example 59, (2S)-2-(2-Dihexylamino-3,4-dioxo-cyclobut-1-enylamino)-3-(4-dimethylcarbamoyloxy-phenyl)-propionic acid]: the IC50 (commonly the point on the concentration scale where inhibition reaches its midpoint) under setting [1] is 0.6 nM. In the case of `O=C(O)[C@H](Cc1ccccc1)Nc1c(NCc2ccccc2)c(=O)c1=O` [Example 3, [2-(Benzylamino)-3,4-dioxo-cyclobut-1-enyl]-L-phenylalanine], under setting [2], the half-inhibitory concentration (IC50) came out at 58000 nM.

On to `CC(=O)N1CCN(c2c(N[C@@H](Cc3ccccc3)C(=O)O)c(=O)c2=O)CC1` [Example 23, (S)-2-[2-(4-Acetyl-piperazin-1-yl)-3,4-dioxo-cyclobut-1-enylamino]-3-phenyl-propionic acid], for which the IC50 under setting [2] is 40000 nM. For `CCCCCCN(CCCCCC)c1c(N[C@@H](Cc2ccc(OCCCN(C)C)cc2)C(=O)O)c(=O)c1=O` [Example 32, N-(2-Dihexylamino-3,4-dioxo-cyclobut-1-enylamino)-O-(3-dimethylamino-propyl)-L-tyrosine], the 50% inhibitory concentration (IC50) under setting [1] was found to be 12 nM. Still for that read-out and setting: under `CN(Cc1cccnc1)c1c(N[C@@H](Cc2ccc(NC(=O)c3ccncc3)cc2)C(=O)O)c(=O)c1=O` [Example 41, N-[2-(Methyl-pyridin-3-ylmethyl-amino)-3,4-dioxo-cyclobut-1-enyl]-4-[(pyridine-4-carbonyl)-amino]-L-phenylalanine] stands 26 nM; under `CN(Cc1cccnc1)c1c(N[C@@H](Cc2ccc(NC(=O)c3cccnc3)cc2)C(=O)O)c(=O)c1=O` [Example 48, N-[2-(Methyl-pyridin-3-ylmethyl-amino)-3,4-dioxo-cyclobut-1-enyl]-4-[(pyridine-3-carbonyl)-amino]-L-phenylalanine], 160 nM. Still for that read-out and setting: next, `CN(C)C(=O)Oc1ccc(C[C@H](Nc2c(N(C)CCc3ccncc3)c(=O)c2=O)C(=O)O)cc1` [Example 63, (2S)-3-(4-Dimethylcarbamoyloxy-phenyl)-2-{2-[methyl-(2-pyridin-4-yl-ethyl)-amino]-3,4-dioxo-cyclobut-1-enylamino}-propionic acid]: 1.6 nM; `CCCCCCN(CCCCCC)c1c(N[C@@H](Cc2ccc(OC(=O)N3CCN(C)CC3)cc2)C(=O)O)c(=O)c1=O` [Example 70]: 0.2 nM. Still for that read-out and setting: next, `CN(C)C(=O)Oc1ccc(C[C@H](Nc2c(N(C)CCc3ccccc3)c(=O)c2=O)C(=O)O)cc1` [Example 57]: 0.9 nM.

On to `O=C(O)[C@H](Cc1ccccc1)Nc1c(N2CCN(c3ccccc3)CC2)c(=O)c1=O` [Example 21, N-[3,4-Dioxo-2-(4-phenyl-piperazin-1-yl)-cyclobut-1-en-1-yl]-L-phenylalanine], for which the IC50 under setting [2] was determined as 86000 nM. `CN1CCN(C(=O)Oc2ccc(C[C@H](Nc3c(N(C)CCc4ccccc4)c(=O)c3=O)C(=O)O)cc2)CC1` [Example 66, (2S)-3-[4-(4-methylpiperazinyl)carbamoyloxy-phenyl]-2-[2-(methyl-phenethyl-amino)-3,4-dioxo-cyclobut-1-enylamino]-propionic acid] displayed an IC50 of 0.5 nM. Take `O=C(O)[C@H](Cc1ccccc1)Nc1c(NCCc2c[nH]c3ccccc23)c(=O)c1=O` [Example 7, 2-{2-[2-(1H-Indol-3-yl)-ethylamino]-3,4-dioxo-cyclobut-1-enylamino}-L-phenylalanine]: the concentration for half-maximal inhibition (IC50) under setting [2] came to 52000 nM.

On to `O=C(O)[C@H](Cc1ccccc1)Nc1c(N(Cc2ccccc2)Cc2ccccc2)c(=O)c1=O` [Example 13, (2-Dibenzylamino-3,4-dioxo-cyclobut-1-enylamino)-L-phenylalanine], for which, under setting [2], the IC50 is 4400 nM. `CCCCCCN(CCCCCC)c1c(N[C@@H](Cc2ccc(NC(=O)c3cccnc3)cc2)C(=O)O)c(=O)c1=O` [Example 44, N-[2-(Dihexylamino)-3,4-dioxo-1-cyclobuten-1-yl]-4-[(3-pyridinylcarbonyl)amino]-L-phenylalanine]: the half-maximal inhibitory concentration (IC50) under setting [1] was found to be 6.5 nM. The same measure, in the same setting: under `CN(CCc1ccncc1)c1c(N[C@@H](Cc2ccc(NC(=O)c3cccnc3)cc2)C(=O)O)c(=O)c1=O` [Example 46] stands 40 nM.
